In paper PMC11535068, “Design, in silico studies and biological evaluation of novel chalcones tethered triazolo[3,4-a]isoquinoline as EGFR inhibitors targeting resistance in non-small cell lung cancer” (Scientific Reports, 2024):

How the values were obtained:
total EGFR = biological target: T1, total EGFR (Homo sapiens, UniProt P00533); experiment: EGFR inhibition assay on A549 cells (cloud clone SEA757Hu kit); type: cell-based; conditions: for Fold more efficient in inhibiting EGFR than lapatinib: total EGFR IC50 ratio to Lapatinib; for IC50: total EGFR, A549 cells
T1 construct: endogenous in cells; host or cells: A549
Method: (§1) EGFR inhibition assay was performed on A549 cancer cells using cloud clone product SEA757Hu 96 Ki, according to manufacturer’s instructions protocol. The homogeneous time-resolved fluorescence assay method was used to assess the inhibitory activity of 3e and 3f against EGFR^WT, EGFR^T790M and EGFR^L858R. The EGFR proteins (EGFR^WT, EGFR^T790M and EGFR^L858R) were obtained from Signalchem (BC V6V 2J2, Canada). ATP and other chemicals were obtained from Sigma. […] After 30 min, the reaction was stopped by adding detection reagents containing EDTA.

A549 lung cancer cells [1] = experiment: Cell cycle analysis (DNA content, flow cytometry); type: cell-based, human; conditions: A549, 24 h, at IC50; for DNA content Pre-G1%: vehicle 2.28%; for DNA content G2/M%: vehicle 8.99%; for DNA content S%: vehicle 44.26%; for DNA content G0–G1%: vehicle 46.75%
Method: (§2) Quantitation of DNA content was evaluated using the Annexin V-FITC Apoptosis Detection kit (BioVision, CA, USA). Dual staining for Annexin-V and PI allows the discrimination between live cells, necrotic cells, and cells in different phases of apoptosis. […] Then, cells were collected and washed with 1X phosphate-buffered saline. The cells were stained in the dark with annexin V-FITC and propidium iodide in a binding buffer and analyzed using the flow cytometer. The cell cycle profiles were analysed using MultiCycle software (Phoenix Flow Systems, San Diego, CA)[60].

Caspase 3 = experiment: RT-qPCR gene expression in A549 cells; type: cell-based, human; conditions: A549, 24 h, vs vehicle cells, beta-actin housekeeping gene
Method: (§3) The real-time polymerase chain reaction (RT-qPCR) technique was used to evaluate the gene expression. A panel of eight genes (P53, BAX, Caspase-3, Caspase-8, Caspase-9, MMP1, CDK4, and Bcl2) was chosen to estimate the compounds’ ability to induce apoptosis. A549 cancer cells were treated with 3e and 3f compounds for 24 h before total RNA extraction. While untreated A549 cancer cells were utilized as a negative control. One-step RT-qPCR was performed using the iScript™ One-Step RT-PCR kit with SYBR®. The primer pairs sequences for each gene used are mentioned in Table 7. Control reactions were formed […] or without the reverse transcriptase enzyme.

Caspase 9 = experiment: RT-qPCR gene expression in A549 cells; type: cell-based, human; conditions: A549, 24 h, vs vehicle cells, beta-actin housekeeping gene
Method: as §3

Bax = experiment: RT-qPCR gene expression in A549 cells; type: cell-based, human; conditions: A549, 24 h, vs vehicle cells
Method: as §3

CDK4 = experiment: RT-qPCR gene expression in A549 cells; type: cell-based, human; conditions: A549, 24 h, vs vehicle cells, beta-actin housekeeping gene
Method: as §3

MMP1 = experiment: RT-qPCR gene expression in A549 cells; type: cell-based, human; conditions: A549, 24 h, vs vehicle cells, beta-actin housekeeping gene
Method: as §3

Bcl2 = experiment: RT-qPCR gene expression in A549 cells; type: cell-based, human; conditions: A549, 24 h, vs vehicle cells, beta-actin housekeeping gene
Method: as §3

P53 = experiment: RT-qPCR gene expression in A549 cells; type: cell-based, human; conditions: A549, 24 h, vs vehicle cells
Method: as §3

Caspase 8 = experiment: RT-qPCR gene expression in A549 cells; type: cell-based, human; conditions: A549, 24 h, vs vehicle cells, beta-actin housekeeping gene
Method: as §3

A549 lung cancer cells [2] = experiment: Annexin V-FITC/PI flow cytometric apoptosis analysis; type: cell-based, human; conditions: A549, 24 h, 3e 2.3 µM, 3f 1.15 µM (IC50); for Apoptosis Late (%): vehicle 0.21%; for Apoptosis Early (%): vehicle 0.49%; for Apoptosis Total (%): vehicle 0.70%; for Necrosis (%): vehicle 1.58%
Method: as §2

EGFR^T790M = biological target: T2, EGFR^T790M (Homo sapiens, UniProt P00533, T790M); experiment: Homogeneous time-resolved fluorescence EGFR-TK assay; type: biochemical; conditions: selectivity index
T2 construct: purchased Signalchem
Method: as §1

EGFR^L858R = biological target: T3, EGFR^L858R (Homo sapiens, UniProt P00533, L858R); experiment: as above; type: biochemical; conditions: selectivity index
T3 construct: purchased Signalchem
Method: as §1

HCT-116 = experiment: MTT antiproliferative assay; conditions: Homo sapiens, HCT-116, 24 h, read-out: IC50 HCT-116
Method: (§4) Cell line cells were purchased from the American Type Culture Collection (ATCC, Manassas, VA) and were cultured according to the supplier’s instructions. […] The media was changed every 48 h, and the cells were split when 80–90% confluence was reached. Cell viability was evaluated by MTT assay.

HT-29 = experiment: MTT antiproliferative assay; conditions: Homo sapiens, HT-29, 24 h, read-out: IC50 HT-29
Method: as §4

PC3 = experiment: MTT antiproliferative assay; conditions: Homo sapiens, PC-3, 24 h, read-out: IC50 PC3
Method: as §4

WI-38 = experiment: MTT assay on normal lung cell line; conditions: Homo sapiens, WI-38, 24 h, read-out: IC50 WI-38
Method: as §4

MCF-7 = experiment: MTT antiproliferative assay; conditions: Homo sapiens, MCF7, 24 h, read-out: IC50 MCF-7
Method: as §4

A549 = experiment: MTT antiproliferative assay; conditions: Homo sapiens, A549, 24 h, read-out: IC50 A549
Method: as §4

| SMILES | IC50 (total EGFR) | IC50 (HCT-116) | melting point | IC50 (HT-29) | IC50 (PC3) | IC50 (MCF-7) | IC50 (A549) | IC50 (WI-38) | other results |
| --- | --- | --- | --- | --- | --- | --- | --- | --- | --- |
| C#Cc1cccc(Nc2ncnc3cc(OCCOC)c(OCCOC)cc23)c1 [Erlotinib, reference compound] | – | – | – | 9.5 ± 0.46 µM | 14.4 ± 0.78 µM | – | 7.32 ± 0.52 µM | 1431.6 ± 0.22 µM | – |
| CS(=O)(=O)CCNCc1ccc(-c2ccc3ncnc(Nc4ccc(OCc5cccc(F)c5)c(Cl)c4)c3c2)o1 [Lapatinib, reference compound] | – | 5.92 ± 0.45 µM | – | 8.23 ± 0.33 µM | 13.7 ± 0.89 µM | 5.02 ± 1.1 µM | 9.66 ± 0.44 µM | 1239.4 ± 0.18 µM | – |
| O=c1[nH]cc(F)c(=O)[nH]1 [Compound 5-FU, 5-fluorouracil, reference compound] | – | 171.5 ± 0.23 µM | – | 203.6 ± 0.48 µM | 178.2 ± 0.34 µM | 160.3 ± 0.47 µM | 66.24 ± 0.36 µM | 210.69 ± 0.19 µM | – |

Further lines, with some results ahead:

| IC50 (total EGFR) | IC50 (HCT-116) | melting point | IC50 (HT-29) | IC50 (PC3) | IC50 (MCF-7) | IC50 (A549) | SMILES | IC50 (WI-38) | other results |
| --- | --- | --- | --- | --- | --- | --- | --- | --- | --- |
| 0.023 µM | 4.61 ± 0.28 µM | 224 to 226 °C | 2.41 ± 0.41 µM | 22.16 ± 0.18 µM | 5.53 ± 0.33 µM | 1.15 ± 0.38 µM | COc1cc2c(cc1OC)C1N(CC2)C(C(=O)C=Cc2cn(-c3ccccc3)nc2-c2ccccc2)=NN1c1ccc([N+](=O)[O-])cc1 (centres unmarked) [Compound 3f, 1-(8,9-Dimethoxy-1-(4-nitrophenyl)-1,5,6,10b-tetrahydro-[1,2,4]triazolo[3,4-a]isoquinolin-3-yl)-3-(1,3-diphenyl-1H-pyrazol-4-yl)prop-2-en-1-one] | 1578 ± 0.23 µM | Fold more efficient in inhibiting EGFR than lapatinib (total EGFR): 1.91 fold; DNA content Pre-G1% (A549 lung cancer cells [1]): 28.21%; DNA content G2/M% (A549 lung cancer cells [1]): 39.84%; DNA content S% (A549 lung cancer cells [1]): 26.42%; DNA content G0–G1% (A549 lung cancer cells [1]): 33.74%; Caspase 3 gene expression fold change (Caspase 3): 11.26 fold; Caspase 9 gene expression fold change (Caspase 9): 9.32 fold; Bax gene expression (in words) (Bax): significantly upregulated; CDK4 gene expression fold change (CDK4): 0.29 fold; MMP1 gene expression fold change (MMP1): 0.31 fold; Bcl-2 gene expression fold change (Bcl2): 0.13 fold; p53 gene expression (in words) (P53): significantly upregulated; Caspase 8 gene expression fold change (Caspase 8): 3.48 fold; Apoptosis Late (%) (A549 lung cancer cells [2]): 15.24%; Apoptosis Early (%) (A549 lung cancer cells [2]): 3.08%; Apoptosis Total (%) (A549 lung cancer cells [2]): 18.32%; Necrosis (%) (A549 lung cancer cells [2]): 9.89%; SI^b = EGFR^WT IC50/ EGFR^T790M IC50 (EGFR^T790M): 4.52; SI^a = EGFR^WT IC50/ EGFR^L858R IC50 (EGFR^L858R): 25.95 |
| 1.89 ± 0.37 µM | 9.41 ± 0.47 µM | 184 to 186 °C | 5.05 ± 0.42 µM | 6.61 ± 1.63 µM | 10 ± 0.23 µM | 2.45 ± 0.68 µM | COc1cc2c(cc1OC)C1N(CC2)C(C(=O)C=Cc2cn(-c3ccccc3)nc2-c2ccccc2)=NN1c1ccc(C)cc1 (centres unmarked) [Compound 3b, 1-(8,9-Dimethoxy-1-(p-tolyl)-1,5,6,10b-tetrahydro-[1,2,4]triazolo[3,4-a]isoquinolin-3-yl)-3-(1,3-diphenyl-1H-pyrazol-4-yl)prop-2-en-1-one] | 669.88 ± 0.26 µM | – |
| 0.066 µM | 14.1 ± 0.66 µM | 216 to 218 °C | 15 ± 0.58 µM | 5.05 ± 1.43 µM | 13.5 ± 0.29 µM | 4.68 ± 0.41 µM | COc1cc2c(cc1OC)C1N(CC2)C(C(=O)C=Cc2cn(-c3ccccc3)nc2-c2ccccc2)=NN1c1ccc(Cl)cc1 (centres unmarked) [Compound 3d, 1-(1-(4-Chlorophenyl)-8,9-dimethoxy-1,5,6,10b-tetrahydro-[1,2,4]triazolo[3,4-a]isoquinolin-3-yl)-3-(1,3-diphenyl-1H-pyrazol-4-yl)prop-2-en-1-one] | 468.92 ± 0.17 µM | – |
| 0.059 ± 0.16 µM | 5.4 ± 0.73 µM | 186 to 188 °C | 4.69 ± 0.55 µM | 3.22 ± 1.37 µM | 4.07 ± 0.38 µM | 5.26 ± 0.49 µM | COc1ccc(N2N=C(C(=O)C=Cc3cn(-c4ccccc4)nc3-c3ccccc3)N3CCc4cc(OC)c(OC)cc4C32)cc1 (centres unmarked) [Compound 3c, 1-(8,9-Dimethoxy-1-(4-methoxyphenyl)-1,5,6,10b-tetrahydro-[1,2,4]triazolo[3,4-a]isoquinolin-3-yl)-3-(1,3-diphenyl-1H-pyrazol-4-yl)prop-2-en-1-one] | 451.08 ± 0.11 µM | – |
| – | 14.8 ± 0.31 µM | 220 to 222 °C | 4.2 ± 0.38 µM | 2.72 ± 1.36 µM | 4.21 ± 0.41 µM | 2.3 ± 0.11 µM | COc1cc2c(cc1OC)C1N(CC2)C(C(=O)C=Cc2cn(-c3ccccc3)nc2-c2ccccc2)=NN1c1ccc(Br)cc1 (centres unmarked) [Compound 3e, 1-(1-(4-Bromophenyl)-8,9-dimethoxy-1,5,6,10b-tetrahydro-[1,2,4]triazolo[3,4-a]isoquinolin-3-yl)-3-(1,3-diphenyl-1H-pyrazol-4-yl)prop-2-en-1-one] | 1731.9 ± 0.21 µM | Fold more efficient in inhibiting EGFR than lapatinib (total EGFR): 1.42 fold; DNA content Pre-G1% (A549 lung cancer cells [1]): 16.02%; DNA content G2/M% (A549 lung cancer cells [1]): 22.74%; DNA content S% (A549 lung cancer cells [1]): 35.93%; DNA content G0–G1% (A549 lung cancer cells [1]): 41.33%; Caspase 3 gene expression fold change (Caspase 3): 9.29 fold; Caspase 9 gene expression fold change (Caspase 9): 6.55 fold; Bax gene expression (in words) (Bax): significantly upregulated; CDK4 gene expression fold change (CDK4): 0.44 fold; MMP1 gene expression fold change (MMP1): 0.37 fold; Bcl-2 gene expression fold change (Bcl2): 0.18 fold; p53 gene expression (in words) (P53): significantly upregulated; Caspase 8 gene expression fold change (Caspase 8): 4.23 fold; Apoptosis Late (%) (A549 lung cancer cells [2]): 4.5%; Apoptosis Early (%) (A549 lung cancer cells [2]): 4.26%; Apoptosis Total (%) (A549 lung cancer cells [2]): 8.76%; Necrosis (%) (A549 lung cancer cells [2]): 7.26%; SI^b = EGFR^WT IC50/ EGFR^T790M IC50 (EGFR^T790M): 2.63; SI^a = EGFR^WT IC50/ EGFR^L858R IC50 (EGFR^L858R): 15.56 |
| 1.62 ± 0.23 µM | 8.15 ± 0.54 µM | 180 to 182 °C | 16.2 ± 0.57 µM | 3.14 ± 1.76 µM | 8.07 ± 0.1 µM | 1.98 ± 0.5 µM | COc1cc2c(cc1OC)C1N(CC2)C(C(=O)C=Cc2cn(-c3ccccc3)nc2-c2ccccc2)=NN1c1ccccc1 (centres unmarked) [Compound 3a, 1-(8,9-Dimethoxy-1-phenyl-1,5,6,10b-tetrahydro-[1,2,4]triazolo[3,4-a]isoquinolin-3-yl)-3-(1,3-diphenyl-1H-pyrazol-4-yl)prop-2-en-1-one] | 890.44 ± 0.13 µM | – |
